The text below walks through data of patent US11161828B2, “Class of bisquaternary ammonium compound as well as the preparative method and the use thereof” (WEST CHINA HOSPITAL, SICHUAN UNIVERSITY, priority 2018, dated 2021).

For one assay, the system named is human body. Conditions: cited from earlier work; for duration of muscle relaxation / action time: after single administration, clinical use.
The subject of assay [1] is Male New Zealand white rabbits. Briefly: Muscle relaxation test in anesthetized rabbits with neuromuscular transmission monitor (TOF). The format is in vivo, rabbit. The conditions noted are these: for ED (2 x ED95): Oryctolagus cuniculus; for ED (2 x ED95) / 2 × ED95: intravenous injection, propofol general anesthesia; for Onset time / Recovery time: i.v. 2×ED95 dose; for Onset time: onset = TOF=0; for Recovery time: recovery of muscle relaxation = TOF=90%. How it is done:
Male New Zealand white rabbits weighing 2-3.5 kg were used as experimental animals for muscle relaxation test. The specific procedures were as follows: propofol emulsion was used to induce and maintain general anesthesia (induction dose: 10 mg/kg; maintenance dose: […]). Tracheal intubation was carried out and respiratory support was used.

With micuronium, the “duration of muscle relaxation / action time” value with human body was 15 to 20 min.
In assay [1], `C[N+](CCOC(=O)OCOC(=O)CCC[N+]1(Cc2c(F)c(F)c(F)c(F)c2F)CCCCC1)(Cc1c(F)c(F)c(F)c(F)c1F)Cc1c(F)c(F)c(F)c(F)c1F` [Compound 6] had an ED (2 x ED95) of 0.9 mg/kg, an Onset time of less than 40 s and a Recovery time of 5.1 ± 2.1 min.
For `C[N+](CCOC(=O)OCOC(=O)CCC[N+]1(Cc2ccc(Br)c(Br)c2)CCCCC1)(Cc1ccc(Br)cc1)Cc1cccc(Cl)c1Cl` (stereo not drawn) [Compound 3], in that order: 1.3 mg/kg, less than 40 s and 3.8 ± 0.4 min.
For `C[N+](CCOC(=O)OCOC(=O)CCC[N+]1(Cc2ccc(Br)cc2)CCCCC1)(Cc1ccc(Br)cc1)Cc1ccc(Br)cc1` [Compound 7], in assay [1], the ED (2 x ED95) was determined as 1.2 mg/kg, the Onset time is listed as less than 40 s and the Recovery time was found to be 5.2 ± 2.1 min.
In assay [1], `C[N+](CCOC(=O)OCOC(=O)CCC[N+]1(Cc2ccc([N+](=O)[O-])cc2)CCCCC1)(Cc1ccccc1)Cc1ccccc1` [Compound 19] came in with an ED (2 x ED95) of 2.2 mg/kg, an Onset time of less than 40 s and a Recovery time of 7.1 ± 1.2 min.
In assay [1] (iv), `COc1ccc(C[N+](C)(CCCCOC(=O)OC(C)OC(=O)C[N+]2(Cc3ccc(OC)c(OC)c3)CCCCC2)Cc2ccc(OC)c(OC)c2)cc1OC` (stereo not drawn) [Compound 24] returned an ED (2 x ED95) of 1.4 mg/kg. In addition, in assay [1], the Onset time was less than 40 s and the Recovery time worked out at 8.4 ± 1.9 min.
In assay [1], `C[N+](CCOC(=O)OCOC(=O)CCC[N+]1(Cc2ccc([N+](=O)[O-])cc2)CCCCC1)(Cc1ccc([N+](=O)[O-])cc1)Cc1ccc(Cl)c(Cl)c1` (stereo not drawn) [Compound 16] returned an ED (2 x ED95) of 2.2 mg/kg, an Onset time of less than 40 s and a Recovery time of 5.2 ± 1.1 min.
In turn, `COc1ccc(C[N+](C)(CCCC(C)OC(=O)OC(C)OC(=O)C[N+]2(Cc3ccc(OC)c(OC)c3)CCCCC2)Cc2ccc(OC)c(OC)c2)cc1OC` (stereo not drawn) [Compound 25] had an ED (2 x ED95) in assay [1] (iv) of 1.4 mg/kg. In assay [1], the Onset time is listed as less than 40 s and the Recovery time came to 8.1 ± 2.9 min.
On to `CC(OC(=O)CCC[N+]1(Cc2ccc(Cl)cc2Cl)CCCCC1)OC(=O)OCC[N+](C)(Cc1ccc(Cl)cc1)Cc1ccc(Cl)c(Cl)c1` (stereo not drawn) [Compound 11], for which, in assay [1], the Onset time is listed as less than 40 s, the Recovery time amounted to 6.7 ± 2.6 min and the “2 × ED95” value turned out to be 0.5 mg/kg.
`C[N+](CCOC(=O)OCOC(=O)CCC[N+]1(Cc2ccccc2Br)CCCCC1)(Cc1ccccc1Br)Cc1ccccc1Br` [Compound 8]: the ED (2 x ED95) in assay [1] (iv) stood at 1.2 mg/kg. Further, in assay [1], the Onset time was less than 40 s and the Recovery time is recorded as 7.2 ± 1.8 min.
In assay [1], `COc1ccc(C[C@@H]2c3cc(OC)c(OC)cc3CC[N@+]2(C)CCC(=O)OCCCCCOC(=O)CC[N@@+]2(C)CCc3cc(OC)c(OC)cc3[C@H]2Cc2ccc(OC)c(OC)c2)cc1OC` [Cisatracurium, reference compound] showed an ED (2 x ED95) of 0.08 mg/kg, an Onset time greater than 120 s and a Recovery time of 17.6 ± 3.2 min.
In assay [1], `C[N+](CCOC(=O)OCOC(=O)CCC[N+]1(Cc2ccc([N+](=O)[O-])cc2)CCCCC1)(Cc1ccccc1)Cc1ccc([N+](=O)[O-])cc1` (stereo not drawn) [Compound 13] yielded an ED (2 x ED95) of 2.1 mg/kg, an Onset time of less than 40 s and a Recovery time of 7.9 ± 1.9 min.
In turn, `COc1ccc(C[N+](C)(Cc2ccc(OC)c(OC)c2)CC(C)OC(=O)OC(C)OC(=O)CCC[N+]2(Cc3ccc(OC)c(OC)c3)CCCCC2)cc1OC` (stereo not drawn) [Compound 23] gave an ED (2 x ED95) in assay [1] (iv) of 1.2 mg/kg. In assay [1], this compound yielded an Onset time of less than 40 s and a Recovery time of 7.8 ± 2.4 min.
In assay [1], `C[N+](CCOC(=O)OCOC(=O)CCC[N+]1(Cc2ccc(Cl)cc2Cl)CCCCC1)(Cc1ccc(Cl)cc1)Cc1ccc(Cl)c(Cl)c1` (stereo not drawn) [Compound 1] returned an ED (2 x ED95) of 0.5 mg/kg, an Onset time of less than 40 s and a Recovery time of 4.2 ± 1.1 min.
For `C[N+](CCOC(=O)OCOC(=O)CCC[N+]1(Cc2ccc([N+](=O)[O-])cc2)CCCCC1)(Cc1ccc([N+](=O)[O-])cc1)Cc1ccc([N+](=O)[O-])cc1` [Compound 12], in that order: 1.8 mg/kg, less than 40 s and 8.1 ± 0.2 min.
Regarding `C[N+](CCOC(=O)OCOC(=O)CCC[N+]1(Cc2ccccc2)CCCCC1)(Cc1ccccc1)Cc1ccccc1` [Compound 20], in assay [1], the ED (2 x ED95) was 2.4 mg/kg, the Onset time was less than 40 s and the Recovery time came out at 6.9 ± 2.5 min.
Turning to `C[N+](CCOC(=O)OCOC(=O)CCC[N+]1(Cc2ccc([N+](=O)[O-])cc2)CCCCC1)(Cc1ccc(Br)cc1)Cc1ccc([N+](=O)[O-])cc1` (stereo not drawn) [Compound 15], in assay [1], the ED (2 x ED95) was found to be 1.9 mg/kg, the Onset time is given as less than 40 s and the Recovery time was 5.3 ± 2.1 min.
`C[N+](C)(C)CCOC(=O)CCC(=O)OCC[N+](C)(C)C` [Succinylcholine, reference compound]: in the assay on human body (in the human body), the “action time (lasts for)” value is 10 min. In assay [1] (iv), this compound returned an ED (2 x ED95) of 1.8 mg/kg. In assay [1], this compound displayed an Onset time of less than 40 s and a Recovery time of 12.3 ± 4.1 min.
In assay [1], `CC(OC(=O)CCC[N+]1(Cc2ccc([N+](=O)[O-])cc2)CCCCC1)OC(=O)OCC[N+](C)(Cc1ccccc1)Cc1ccc([N+](=O)[O-])cc1` (stereo not drawn) [Compound 14] gave an ED (2 x ED95) of 2.4 mg/kg, an Onset time of less than 40 s and a Recovery time of 4.2 ± 1.2 min.
On to `CC(=O)O[C@H]1C[C@@H]2CC[C@@H]3[C@H](CC[C@@]4(C)[C@H]3C[C@H]([N+]3(C)CCCCC3)[C@@H]4OC(C)=O)[C@@]2(C)C[C@@H]1[N+]1(C)CCCCC1` [pancuronium], for which the “duration of muscle relaxation / action time” value in the assay with human body is given as greater than 60 min.
`CC(OC(=O)CCC[N+]1(Cc2ccc(Cl)cc2Cl)CCCCC1)OC(=O)OCC[N+](C)(Cc1ccc(Cl)cc1)Cc1ccc(Cl)c(Cl)c1` (stereo not drawn) [Compound 9] yielded an ED (2 x ED95) in assay [1] (iv) of 0.6 mg/kg. In assay [1], this compound displayed an Onset time of less than 40 s and a Recovery time of 4.2 ± 1.1 min.
As to `CC(OC(=O)CCC[N+]1(Cc2ccc(Cl)cc2Cl)CCCCC1)OC(=O)OCC[N+](C)(Cc1ccc(Cl)cc1)Cc1ccc(Cl)c(Cl)c1` (stereo not drawn) [Compound 10], in assay [1], the Onset time is less than 40 s, the Recovery time was 4.2 ± 0.9 min and the “2 × ED95” value was determined as 0.7 mg/kg.
For the compound `C[N+](CCOC(=O)OCOC(=O)CCC[N+]1(Cc2c(F)cc(F)cc2F)CCCCC1)(Cc1ccc(F)cc1)Cc1c(F)cc(F)cc1F` (stereo not drawn) [Compound 4], in assay [1], the ED (2 x ED95) amounted to 0.4 mg/kg, the Onset time was less than 40 s and the Recovery time was determined as 4.4 ± 0.5 min.
In assay [1], `C[N+](CCOC(=O)OCOC(=O)CCC[N+]1(Cc2ccccc2)CCCCC1)(Cc1ccccc1)Cc1ccc([N+](=O)[O-])cc1` (stereo not drawn) [Compound 18] came in with an ED (2 x ED95) of 1.9 mg/kg, an Onset time of less than 40 s and a Recovery time of 7.2 ± 2.7 min.
For `CC(C[N+](C)(Cc1ccccc1)Cc1ccc([N+](=O)[O-])cc1)OC(=O)OCOC(=O)CCC[N+]1(Cc2ccc([N+](=O)[O-])cc2)CCCCC1` (stereo not drawn) [Compound 22], in assay [1] (iv), the ED (2 x ED95) was found to be 1.2 mg/kg. In assay [1], this compound gave an Onset time of less than 40 s and a Recovery time of 6.2 ± 1.4 min.
In assay [1], `C[N+](CCOC(=O)OCOC(=O)CCC[N+]1(Cc2ccc([N+](=O)[O-])cc2[N+](=O)[O-])CCCCC1)(Cc1ccc([N+](=O)[O-])cc1)Cc1ccc([N+](=O)[O-])cc1` [Compound 5] had an ED (2 x ED95) of 0.4 mg/kg, an Onset time of less than 40 s and a Recovery time of 6.2 ± 1.4 min.
Consider `C[N+](CCCCOC(=O)OCOC(=O)C[N+]1(Cc2ccc([N+](=O)[O-])cc2)CCCCC1)(Cc1ccc([N+](=O)[O-])cc1)Cc1ccc(Cl)cc1Cl` (stereo not drawn) [Compound 21], for which, in assay [1], the ED (2 x ED95) turned out to be 4 mg/kg, the Onset time is less than 40 s and the Recovery time is given as 5.1 ± 1.1 min.
